Tested on: Colo205 cells
Format: cell-based, human
Settings: selinexor-treated cytoplasm vs control cytoplasm

O=C(/C=C\n1cnc(-c2cc(C(F)(F)F)cc(C(F)(F)F)c2)n1)NNc1cnccn1 [selinexor]
Differential protein expression, PLEKHS1 (Q5SXH7): 2.039
Differential protein expression, RSBN1 (Q5VWQ0): 100
Differential protein expression, ZMYM4 (Q5VZL5): 0.01
Differential protein expression, RPL7L1 (Q6DKI1): 0.463
Differential protein expression, DMKN (Q6E0U4): 0.02
Differential protein expression, NCAPH2 (Q6IBW4): 0.01
Differential protein expression, LIN54 (Q6MZP7): 0.426
Differential protein expression, POMZP3 (Q6PJE2): 100
Differential protein expression, CCDC137 (Q6PK04): 0.426
Differential protein expression, MPRIP (Q6WCQ1): 0.01
Differential protein expression, NCCRP1 (Q6ZVX7): 2.342
Differential protein expression, LPCAT2 (Q7L5N7): 2.194
Differential protein expression, CXXC5 (Q7LFL8): 0.01
Differential protein expression, KRT74 (Q7RTS7): 4.935
Differential protein expression, KRT28 (Q7Z3Y7): 2.439
Differential protein expression, KRT27 (Q7Z3Y8): 2.607
Differential protein expression, KRT25 (Q7Z3Z0): 2.607
Differential protein expression, MYH14 (Q7Z406): 2.01
Differential protein expression, KRT78 (Q8N1N4): 2.84
Differential protein expression, PIAS4 (Q8N2W9): 0.01
Differential protein expression, GPATCH11 (Q8N954): 100
Differential protein expression, KDM1B (Q8NB78): 0.01
Differential protein expression, RNF169 (Q8NCN4): 100
Differential protein expression, PHC3 (Q8NDX5): 100
Differential protein expression, PPHLN1 (Q8NEY8): 0.01
Differential protein expression, GDAP1 (Q8TB36): 2.559
Differential protein expression, CIP2A (Q8TCG1): 0.239
Differential protein expression, CHD6 (Q8TD26): 0.01
Differential protein expression, GPT2 (Q8TD30): 0.411
Differential protein expression, RB1CC1 (Q8TDY2): 100
Differential protein expression, ZNF384 (Q8TF68): 0.01
Differential protein expression, U2AF1L4 (Q8WU68): 2.738
Differential protein expression, TSEN15 (Q8WW01): 0.497
Differential protein expression, NIPSNAP1 (Q9BPW8): 0.499
Differential protein expression, SH2D3A (Q9BRG2): 100
Differential protein expression, WDR83 (Q9BRX9): 100
Differential protein expression, TPPP3 (Q9BW30): 2.408
Differential protein expression, LSM14B (Q9BX40): 0.437
Differential protein expression, TTYH3 (Q9C0H2): 0.47
Differential protein expression, BRD8 (Q9H0E9): 0.01
Differential protein expression, WWP1 (Q9H0M0): 2.549
Differential protein expression, TASP1 (Q9H6P5): 100
Differential protein expression, RPF2 (Q9H7B2): 2.588
Differential protein expression, CAAP1 (Q9H8G2): 100
Differential protein expression, BRD9 (Q9H8M2): 0.01
Differential protein expression, ING2 (Q9H160): 100
Differential protein expression, SDCBP2 (Q9H190): 2.885
Differential protein expression, EPB41L4B (Q9H329): 2.055
Differential protein expression, FOXP1 (Q9H334): 0.01
Differential protein expression, SP110 (Q9HB58): 0.01
Differential protein expression, PATZ1 (Q9HBE1): 100
Differential protein expression, SPC25 (Q9HBM1): 0.479
Differential protein expression, AGO4 (Q9HCK5): 2.165
Differential protein expression, TCF7L1 (Q9HCS4): 5.627
Differential protein expression, MLXIPL (Q9NP71): 0.379
Differential protein expression, TCF7L2 (Q9NQB0): 0.01
Differential protein expression, STRN4 (Q9NRL3): 100
Differential protein expression, RAD18 (Q9NS91): 100
Differential protein expression, DIAPH3 (Q9NSV4): 0.233
Differential protein expression, MBNL3 (Q9NUK0): 2.509
Differential protein expression, MRGBP (Q9NV56): 100
Differential protein expression, EXD2 (Q9NVH0): 2.016
Differential protein expression, ASF1B (Q9NVP2): 0.458
Differential protein expression, SDHAF2 (Q9NX18): 0.346
Differential protein expression, EHF (Q9NZC4): 0.01
Differential protein expression, MACROH2A2 (Q9P0M6): 100
Differential protein expression, SENP1 (Q9POU3): 0.01
Differential protein expression, m101L (Q9Q8J9): 2.679
Differential protein expression, m097R (Q9Q8K3): 100
Differential protein expression, m094R (Q9Q8K6): 0.01
Differential protein expression, m089L (Q9Q8L1): 0.01
Differential protein expression, m048L (Q9Q8P8): 2.287
Differential protein expression, m043L (Q9Q8Q3): 0.01
Differential protein expression, m042L (Q9Q8Q4): 0.01
Differential protein expression, m032R (Q9Q8R4): 100
Differential protein expression, DNAJB4 (Q9UDY4): 3.313
Differential protein expression, DAXX (Q9UER7): 100
Differential protein expression, MLX (Q9UH92): 0.453
Differential protein expression, ADGRE2 (Q9UHX3): 0.491
Differential protein expression, RASAL2 (Q9UJF2): 0.01
Differential protein expression, LEF1 (Q9UJU2): 5.627
Differential protein expression, ANAPC2 (Q9UJX6): 0.336
Differential protein expression, GGA2 (Q9UJY4): 0.442
Differential protein expression, CCNL1 (Q9UK58): 3.386
Differential protein expression, RALY (Q9UKM9): 2.03
Differential protein expression, YEATS2 (Q9ULM3): 100
Differential protein expression, NOB1 (Q9ULX3): 0.407
Differential protein expression, FZR1 (Q9UM11): 4.964
Differential protein expression, NOL7 (Q9UMY1): 0.431
Differential protein expression, LIMCH1 (Q9UPQ0): 0.01
Differential protein expression, AGAP1 (Q9UPQ3): 2.271
Differential protein expression, DNM3 (Q9UQ16): 100
Differential protein expression, JRKL (Q9Y4A0): 0.474
Differential protein expression, DCAF1 (Q9Y4B6): 0.482
Differential protein expression, UTP18 (Q9Y5J1): 0.493
Differential protein expression, ST14 (Q9Y5Y6): 2.934
Differential protein expression, RBMX2 (Q9Y388): 100
Differential protein expression, PSAT1 (Q9Y617): 0.469
Differential protein expression, SLC12A7 (Q9Y666): 0.497
Differential protein expression, mt6 (Q9YQ03): 0.01
Differential protein expression, GLE1 (Q53GS7): 0.329
Differential protein expression, INO80D (Q53TQ3): 100
Differential protein expression, NAIF1 (Q69Y17): 0.374
Differential protein expression, H3C13; H3C14; H3C15 (Q71DI3): 3.19
Differential protein expression, TADA2B (Q86TJ2): 0.246
Differential protein expression, RPS19BP1 (Q86WX3): 0.426
Differential protein expression, KRT73 (Q86Y46): 4.935
Differential protein expression, PBXIP1 (Q96AQ6): 2.168
Differential protein expression, INTS12 (Q96CB8): 100
Differential protein expression, LRRC58 (Q96CX6): 3.753
Differential protein expression, RBMXL1 (Q96E39): 100
Differential protein expression, MCRS1 (Q96EZ8): 0.01
Differential protein expression, PERP (Q96FX8): 2.002
Differential protein expression, LTV1 (Q96GA3): 0.288
Differential protein expression, SMARCD1 (Q96GM5): 0.376
Differential protein expression, ZNF668 (Q96K58): 0.01
Differential protein expression, RNPC3 (Q96LT9): 100
Differential protein expression, PWWP2A (Q96N64): 0.01
Differential protein expression, SERPINB12 (Q96P63): 3.145
Differential protein expression, SLC38A2 (Q96QD8): 0.262
Differential protein expression, PHF12 (Q96QT6): 100
Differential protein expression, SMC6 (Q96SB8): 0.01
Differential protein expression, CDK3 (Q00526): 0.01
Differential protein expression, ARL11 (Q969Q4): 2.014
Differential protein expression, U2AF1 (Q01081): 2.205
Differential protein expression, KRT76 (Q01546): 2.236
Differential protein expression, SP2 (Q02086): 0.01
Differential protein expression, PCDH1 (Q08174): 3.649
Differential protein expression, DSC1 (Q08554): 2.044
Differential protein expression, CDH17 (Q12864): 5.81
Differential protein expression, PRDM2 (Q13029): 0.499
Differential protein expression, KRR1 (Q13601): 2.698
Differential protein expression, AAMP (Q13685): 0.385
Differential protein expression, RUNX2 (Q13950): 0.192
Differential protein expression, CDK13 (Q14004): 2.192
Differential protein expression, TFDP2 (Q14188): 0.48

Reference: patent publication US20250249056A1, “CANCER THERAPIES COMPRISING A NUCLEAR EXPORT INHIBITOR AND AN ONCOLYTIC VIRUS” (priority 2022, published 2025)
